Earlier results as cited in paper PMC8923172 (Antimicrobial Agents and Chemotherapy, 2022).

Test system: LPS-induced ALI
Details: 2 mg/kg; cited from earlier work

C[C@@H]1C[C@H]2[C@@H]3CCC4=CC(=O)C=C[C@]4(C)[C@@]3(F)[C@@H](O)C[C@]2(C)[C@@]1(O)C(=O)CO [dexamethasone]
decrease in IFN-γ in bronchoalveolar lavage fluid: ~43% | decrease in IL-6 in bronchoalveolar lavage fluid: approximately 26% | decrease in IP-10 (CXCL10) in bronchoalveolar lavage fluid: ~50%
